Results from patent publication US8389523B2, “Substituted quinoxaline and an agrochemical composition thereof” (Kumiai Chemical Industry Co., Ltd., priority 2007, dated 2013).

Tests used:
Assay type in all cases: in vivo
Parameters in all cases: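 grade 0 to 5 of growth suppression where 5 is 90% or more and 0 below 10%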
[1] = tested on: Echinochloa crus-galli (L.) P. Beauv. var. crus-galli; experiment: Herbicidal effects in upland field foliar treatment (Test Example 3); conditions: 1000 g of the active ingredient per hectare, 14th day after the treatment, wettable powder, criteria of Table 138
Procedure, shortened: (§1)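 Post-emergence foliar treatment: two-week-old seedlings from upland field soil received 1000 g a.i./ha (wettable powder, 1000 L water/ha), then returned to the greenhouse for scoring 14 days later.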

[2] = tested on: Amaranthus viridis L.; experiment: as above; conditions: 1000 g of the active ingredient per hectare, 14th day after the treatment, wettable powder, criteria of Table 138
Procedure, shortened: as §1

[3] = tested on: Abutilon theophrasti medicus; experiment: as above; conditions: 1000 g of the active ingredient per hectare, 14th day after the treatment, wettable powder, criteria of Table 138
Procedure, shortened: as §1

[4] = tested on: Echinochloa oryzicola Vasing; experiment: Herbicidal effects in paddy field soil treatment (Test Example 1); conditions: paddy field soil treatment; 1000 g of the active ingredient per hectare; wettable powder added dropwise on water surface; 21st day after treatment
Procedure, shortened: (§2)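 Flooded-paddy soil treatment under greenhouse conditions: a diluted wettable powder at 1000 g a.i./ha went onto the water surface one day post-sowing, with 3 cm standing water, and weed control was graded on a scoring scale 21 days after treatment.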

[5] = tested on: Scirpus juncoides Roxb. var. ohwianus. T. Koyama; experiment: as above; conditions: paddy field soil treatment; 1000 g of the active ingredient per hectare; wettable powder added dropwise on water surface; 21st day after treatment
Procedure, shortened: as §2

[6] = tested on: Monochoria vaginalis (Burm. f.) Presl var. plantaginea (Roxb.) Solms-Laub.; experiment: as above; conditions: paddy field soil treatment; 1000 g of the active ingredient per hectare; wettable powder added dropwise on water surface; 21st day after treatment
Procedure, shortened: as §2

[7] = tested on: Amaranthus viridis L.; experiment: Herbicidal effects in upland field soil treatment (Test Example 2); conditions: 1000 g active ingredient per hectare, 21st day after treatment, criteria of Table 138
Procedure, shortened: (§3)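 Soil-applied before emergence at 1000 g a.i./ha as water-diluted wettable powder; greenhouse-grown plants rated for herbicidal damage 21 days post-treatment.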

[8] = tested on: Abutilon theophrasti medicus; experiment: as above; conditions: 1000 g active ingredient per hectare, 21st day after treatment, criteria of Table 138
Procedure, shortened: as §3

Compound | herbicidal effects on Echinochloa crus-galli (L.) P. Beauv. var. crus-galli [1] | herbicidal effects on Amaranthus viridis L. [2] | herbicidal effects on Abutilon theophrasti medicus [3] | Herbicidal effects index, Echinochloa oryzicola Vasing [4] | Herbicidal effects index, Scirpus juncoides Roxb. var. ohwianus. T. Koyama [5] | Herbicidal effects index, Monochoria vaginalis (Burm. f.) Presl var. plantaginea (Roxb.) Solms-Laub. [6] | herbicidal effect (index) on Amaranthus viridis L. [7] | herbicidal effect (index) on Abutilon theophrasti medicus [8]
COCc1ccc(-n2c(=O)c(C(=O)C3=C(O)CCCC3=O)nc3ccccc32)cc1 [II-149] | 5 | 5 | 5 | 5 | 5 | 5 | 5 | 4
COc1cc(-n2c(=O)c(C(=O)C3=C(O)CCCC3=O)nc3ccccc32)ccc1Cl [II-167] | 5 | 5 | 5 | 5 | 5 | 5 | 5 | 5
COc1cc(-n2c(=O)c(C(=O)C3=C(O)CCCC3=O)nc3ccccc32)ccc1C [II-168] | 4 | 5 | 5 | 5 | 5 | 5 | 5 | 5
COc1cc(OC)cc(-n2c(=O)c(C(=O)C3=C(O)CCCC3=O)nc3ccccc32)c1 [II-173] | 4 | 5 | 5 | 5 | 5 | 5 | 5 | 4
COc1cc(-n2c(=O)c(C(=O)C3=C(O)CCCC3=O)nc3ccccc32)cc(OC)c1OC [II-185] | 4 | 5 | 5 | 4 | 5 | 5 | 5 | 5
COc1ccc(-n2c(=O)c(C(=O)C3=C(O)CCCC3=O)nc3ccc(F)cc32)cc1 [II-188] | 4 | 5 | 5 | 5 | 5 | 5 | 5 | 5
COc1ccc(-n2c(=O)c(C(=O)C3=C(O)CCCC3=O)nc3cccc(F)c32)cc1 [II-189] | 5 | 5 | 5 | 5 | 5 | 5 | 5 | 5
O=C1CCCC(O)=C1C(=O)c1nc2c(Cl)cccc2n(-c2ccccc2)c1=O [II-190] | 4 | 5 | 5 | 5 | 5 | 5 | 4 | 5
COc1ccc(-n2c(=O)c(C(=O)C3=C(O)CCCC3=O)nc3ccc(Cl)cc32)cc1 [II-196] | 5 | 5 | 5 | 4 | 5 | 5 | 5 | 4
O=C1CCCC(O)=C1C(=O)c1nc2ccccc2n(-c2ccc(OCC3CC3)cc2)c1=O [II-208] | 4 | 5 | 5 | 5 | 5 | 5 | 5 | 5
Cc1ccc(-n2c(=O)c(C(=O)C3=C(O)CCCC3=O)nc3ccccc32)cc1C [II-211] | 5 | 5 | 5 | 5 | 5 | 5 | 5 | 5
Cc1ccc(-n2c(=O)c(C(=O)C3=C(O)CCCC3=O)nc3ccccc32)c(F)c1 [II-212] | 5 | 5 | 5 | 5 | 5 | 5 | 5 | 5
Cc1ccc(-n2c(=O)c(C(=O)C3=C(O)CCCC3=O)nc3ccccc32)cc1F [II-213] | 4 | 5 | 5 | 5 | 5 | 5 | 5 | 5
Cc1ccc(-n2c(=O)c(C(=O)C3=C(O)CCCC3=O)nc3ccccc32)c(Cl)c1 [II-215] | 5 | 5 | 5 | 5 | 5 | 5 | 5 | 5
CCOc1cc(-n2c(=O)c(C(=O)C3=C(O)CCCC3=O)nc3ccccc32)ccc1OC [II-217] | 4 | 5 | 5 | 4 | 5 | 5 | 5 | 5
COc1ccc(-n2c(=O)c(C(=O)C3=C(O)CCCC3=O)nc3ccccc32)c(OC)c1OC [II-218] | 4 | 5 | 5 | 4 | 5 | 5 | 5 | 5
COc1cc(F)c(-n2c(=O)c(C(=O)C3=C(O)CCCC3=O)nc3ccccc32)cc1F [II-219] | 5 | 5 | 5 | 5 | 5 | 5 | 5 | 5
COc1c(F)cc(-n2c(=O)c(C(=O)C3=C(O)CCCC3=O)nc3ccccc32)cc1F [II-220] | 5 | 5 | 5 | 5 | 5 | 5 | 5 | 5
